Test results as given in patent US20220160712A1, “METHODS OF TREATING RHEUMATOID ARTHRITIS AND FOR PREDICTING THE RESPONSE TO METHOTREXATE” (CHAN ZUCKERBERG BIOHUB, INC., priority 2020, published 2022).

Legend:
[1] = test system: B. theta; assay: RNA-seq after MTX treatment; type: cell-based, Bacteroides thetaiotaomicron; details: MTX 100 μg/ml
Method: (§1) Genomes were obtained from NCBI's GenBank Assembly database. Culture media was composed of BHI+and allowed to equilibrate in an anaerobic environment prior to use. Briefly, bacteria were cultured in BHI+at 37° C. in an anaerobic chamber. Cultures for each isolate were grown to mid-exponential (achieving an OD600˜0.5), aliquoted into triplicates, treated for 30 minutes with either DMSO or MTX 100 μg/ml, and then removed from the anaerobic chamber. […]
(§2) Total RNA was subjected to rRNA depletion using Ribo-Zero Bacterial rRNA Depletion (Illumina, catalog #: MRZB12424), following the manufacturer's protocol. […] For each sample, fastq files are available in NCBI's Sequence Read Archive (SRA), accession number PRJNA656577.
(§3) Reads were trimmed using Trimmomatic (v0.32) (Bolger, A. M., et al., (2014), Bioinformatics 30, 2114-2120), and ribosomal reads were removed using SortMeRNA (v2.1) (Kopylova, E., et al., (2012), Bioinformatics 28, 3211-3217). Reads were mapped to reference genomes using Bowtie2 (Langmead, B., and Salzberg, S. L. (2012), Nat Methods 9, 357-359) using the following options: -q, —met file, —end-to-end, —sensitive. […]

[2] = test system: C. symbiosum; assay: RNA-seq after MTX treatment; type: cell-based, Clostridium symbiosum; details: MTX 100 μg/ml, 30 minutes; padj<0.2, DESeq
Method: as §1, §2, §3

[3] = MTX 1 mg/kg or 50 mg/kg daily, short treatment durations (2-4 days)
Text: C57BL/6J mice (females, ages 6-16 weeks) were obtained from the UCSF Gnotobiotics core facility (gnotobiotics.ucsf.edu) and housed in gnotobiotic isolators for the duration of each experiment (Class Biologically Clean). […] Housing: Mice were co-housed in some experiments, distributed across multiple cages per treatment group, or individually housed. Individually housed mice were housed in Single Mouse Duplexed Cages (Thoren, Cat #15). Colonization: Mice were colonized with stool from human donors, either a healthy male donor or a treatment-naive (re-MTX) female and male donors with rheumatoid arthritis [as defined by American College of Rheumatology classification criteria, either (Arnett, F. C., et al. (1988), Arthritis Rheum 31, 315-324) or (Aletaha, D., et al. (2010), Arthritis Rheum 62, 2569-2581)]; samples obtained 1 month after starting MTX were used for “post-MTX” transplants. For colonization with a human microbiome, stool was diluted 1:10 g/mL in reduced PBS or saline and homogenized in an anaerobic chamber using pre-equilibrated reagents and supplies. Insoluble material was separated from supernatant by centrifugation at 50 g for 1 minute. Aliquots of supernatant (100-200 μl per mouse) were gavaged into mice. […] Mice were monitored and weighed daily during treatment. […]

In the case of `CN(Cc1cnc2nc(N)nc(N)c2n1)c1ccc(C(=O)N[C@@H](CCC(=O)O)C(=O)O)cc1` [MTX, methotrexate], the “genes in the transcriptome affected” value ([1]; 30 minutes, padj<0.2, DESeq) is reported as 83%, the “number of pathways enriched among differentially expressed transcripts” value ([1]; transcripts with padj<0.2) is reported as 57 pathways and the “number of differentially expressed genes” value [2] is reported as 55 genes. The weight loss [3] was “minimal weight loss”.
